Test results: PMC6265332, “A scalable peptide-GPCR language for engineering multicellular communication” (Nature Communications, 2018)
Where a SMILES comes first, the peptide text is derived from it.

Tested on: fungal mating GPCRs (Ste2-like, xy.Ste2) expressed in S. cerevisiae strain JTy014
Type: cell-based, Ascomycete species of the code; expressed in S. cerevisiae
Conditions: GPCR of the same code; for Bttm (basal activation) / Span / Top (maximal activation): fit parameter of the dose-response curve, A600-normalised RFP fluorescence, 8 h, triplicate; for Fold Change: fold activation, peptide-treated maximum over water-treated A600-normalised fluorescence; for Hill Slope: four-parameter fit of the dose-response curve (dynamic range)

Row | Molecule | Bttm (basal activation) | Span | Top (maximal activation) | Fold Change | Hill Slope
1 | WCTRPGQGC [Pb, mature mating peptide ligand 1, Paracoccidioides brasiliensis] | 20.2 | 196.9 | 217.1 | 10.8 | 0.5
2 | CC[C@H](C)[C@H](NC(=O)[C@H](Cc1c[nH]c2ccccc12)NC(=O)CN)C(=O)NCC(=O)N[C@@H](CCCNC(=N)N)C(=O)N[C@@H](CS)C(=O)NCC(=O)N[C@H](C(=O)N1CCC[C@H]1C(=O)NCC(=O)N[C@@H](CO)C(=O)N[C@@H](CO)C(=O)N[C@@H](CS)C(=O)O)C(C)C [Bm] (H-GWIGRCGVPGSSC-OH; N-terminus and C-terminus assumed) | 30.3 | 128.4 | 158.8 | 5.2 | 1.2
3 | KPHWTTYGYYEPQ [Cp, mature mating peptide ligand 1, Candida parapsilosis] | 36.2 | 217.8 | 254.0 | 7.0 | 0.8
4 | WCGRPGQPC [Bc, mature mating peptide ligand 1, Botrytis cinerea] | 28.6 | 323.3 | 351.9 | 12.3 | 0.7
5 | QWCR---IHGQSCW [Nc, mature mating peptide ligand 1, Neurospora crassa] | 27.6 | 259.2 | 286.7 | 10.4 | 0.6
6 | FCWRPGQPCG [Pd, mature mating peptide ligand 1, Pseudogymnoascus destructans] | 28.8 | 161.2 | 190.0 | 6.6 | 0.7
7 | WCYRIGEPCW [Hj, mature mating peptide ligand 1, Hypocrea jecorina] | 53.0 | 376.5 | 429.5 | 8.1 | 0.6
8 | WCGHIGQGC [Pr, mature mating peptide ligand 1, Penicillium chrysogenum] | 27.9 | 179.4 | 207.3 | 7.4 | 0.6
9 | WCMRPGQPCW [Bb, mature mating peptide ligand 1, Beauvaria bassiana] | 25.2 | 218.9 | 244.1 | 9.7 | 1.0
